Results: the supplement of paper PMC10307832

Legend:
Experiment in all cases: relative viability (nuclei count vs DMSO), 5 days (fraction); higher = more cells survive
[1] = compound: CN(NC(=O)CC(=O)NN(C)C(=S)c1ccccc1)C(=S)c1ccccc1 [Elesclomol] + CC(=O)c1c(C)c2cnc(Nc3ccc(N4CCNCC4)cn3)nc2n(C2CCCC2)c1=O [Palbociclib] (partner 0.5 µM)
Outline: (§1)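 Relative viability is defined as nuclei in treated wells over nuclei in vehicle wells. Duplicate plates were run and medians reported. Lung cancer cell lines in 1536-well plates were dosed by pin tool one day after seeding, with one drug or with a fixed anchor-drug dose plus five library-drug doses (not always all listed) in √10 steps, and nuclei were counted after 5 days.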

[2] = compound: CN(NC(=O)CC(=O)NN(C)C(=S)c1ccccc1)C(=S)c1ccccc1 [Elesclomol] + CS(=O)(=O)CCNCc1ccc(-c2ccc3ncnc(Nc4ccc(OCc5cccc(F)c5)c(Cl)c4)c3c2)o1 [Lapatinib] (partner 2 µM)
Outline: as §1

[3] = compound: CN(NC(=O)CC(=O)NN(C)C(=S)c1ccccc1)C(=S)c1ccccc1 [Elesclomol] + N=C(N)NC(=N)NCCc1ccccc1 [Phenformin] (partner 250 µM)
Outline: as §1

[4] = compound: CN(NC(=O)CC(=O)NN(C)C(=S)c1ccccc1)C(=S)c1ccccc1 [Elesclomol] + Nc1nc2[nH]cc(CCc3ccc(C(=O)N[C@@H](CCC(=O)O)C(=O)O)cc3)c2c(=O)[nH]1 [Pemetrexed] (partner 0.2 µM)
Outline: as §1

[5] = compound: CN(NC(=O)CC(=O)NN(C)C(=S)c1ccccc1)C(=S)c1ccccc1 [Elesclomol] + O=C(c1cc(Cc2n[nH]c(=O)c3ccccc23)ccc1F)N1CCN(C(=O)C2CC2)CC1 [Olaparib] (partner 8 µM)
Outline: as §1

| Cell Line | relative viability ([1]; first compound 0.003162 µM) | relative viability ([1]; first compound 0.01 µM) | relative viability ([1]; first compound 0.03162 µM) | relative viability ([1]; first compound 0.1 µM) | relative viability ([2]; first compound 0.003162 µM) | relative viability ([2]; first compound 0.01 µM) | relative viability ([2]; first compound 0.03162 µM) | relative viability ([2]; first compound 0.1 µM) | relative viability ([3]; first compound 0.003162 µM) | relative viability ([3]; first compound 0.01 µM) | relative viability ([3]; first compound 0.03162 µM) | relative viability ([3]; first compound 0.1 µM) | relative viability ([4]; first compound 0.003162 µM) | relative viability ([4]; first compound 0.01 µM) | relative viability ([4]; first compound 0.03162 µM) | relative viability ([4]; first compound 0.1 µM) | relative viability ([5]; first compound 0.003162 µM) | relative viability ([5]; first compound 0.01 µM) | relative viability ([5]; first compound 0.03162 µM) | relative viability ([5]; first compound 0.1 µM) |
| --- | --- | --- | --- | --- | --- | --- | --- | --- | --- | --- | --- | --- | --- | --- | --- | --- | --- | --- | --- | --- |
| NCI-H838 | 0.229 | 0.189 | 0.247 | 0.143 | 0.984 | 0.838 | 0.683 | 0.555 | 0.536 | 0.508 | 0.455 | 0.152 | 0.254 | 0.217 | 0.252 | 0.195 | 0.765 | 0.721 | 0.488 | 0.215 |
| NCI-H1355 | 0.429 | 0.344 | 0.3 | 0.171 | 1.05 | 0.786 | 0.657 | 0.222 | 0.464 | 0.409 | 0.391 | 0.312 | 1.02 | 0.992 | 0.721 | 0.206 | 0.724 | 0.648 | 0.347 | 0.209 |
| NCI-H1395 | 0.659 | 0.36 | 0.309 | 0.219 | 1.01 | 0.368 | 0.289 | 0.304 | 0.45 | 0.364 | 0.296 | 0.27 | 0.829 | 0.436 | 0.201 | 0.183 | 0.449 | 0.364 | 0.254 | 0.22 |
| NCI-H1437 | 0.3 | 0.247 | 0.257 | 0.208 | 0.637 | 0.45 | 0.346 | 0.265 | 0.292 | 0.252 | 0.246 | 0.217 | 0.317 | 0.249 | 0.224 | 0.243 | 0.555 | 0.461 | 0.379 | 0.359 |
| NCI-H1650 | 0.234 | 0.155 | 0.104 | 0.0955 | 0.38 | 0.277 | 0.184 | 0.17 | 0.315 | 0.211 | 0.173 | 0.133 | 0.304 | 0.294 | 0.333 | 0.095 | 0.583 | 0.291 | 0.145 | 0.0879 |
| NCI-H1651 | 0.509 | 0.516 | 0.532 | 0.341 | 0.715 | 0.415 | 0.112 | 0.0857 | 0.321 | 0.257 | 0.151 | 0.1 | 0.638 | 0.61 | 0.535 | 0.432 | 0.185 | 0.184 | 0.192 | 0.135 |
| NCI-H1666 | 0.682 | 0.563 | 0.575 | 0.583 | 0.556 | 0.326 | 0.229 | 0.153 | 0.566 | 0.554 | 0.494 | 0.476 | 0.998 | 0.801 | 0.817 | 0.724 | 0.666 | 0.703 | 0.662 | 0.603 |
| NCI-H1734 | 0.334 | 0.326 | 0.132 | 0.105 | 1.11 | 0.893 | 0.294 | 0.125 | 0.369 | 0.343 | 0.38 | 0.191 | 0.436 | 0.507 | 0.234 | 0.11 | 0.586 | 0.519 | 0.165 | 0.0747 |
